Assay results published in PMC8909834, “An Orally Bioavailable and Highly Efficacious Inhibitor of CDK9/FLT3 for the Treatment of Acute Myeloid Leukemia” (Cancers, 2022).

Legend:
Test in all cases: Kinase Hotspot radiolabel assay
Format in all cases: biochemical
Conditions in all cases: read-out: % Residual Activity
HIPK2 = biological target: T1, HIPK2 (Homo sapiens, UniProt Q9H2X6)
T1 construct: purchased Reaction Biology Corporation (Kinase HotSpot)
How it was run: (§1)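 Hotspot radioactive kinase assay, compound fixed at 1 µM, broad 369-kinase selectivity screen.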

ABL1 = biological target: T2, ABL1 (Homo sapiens, UniProt P00519)
T2 construct: purchased Reaction Biology Corporation (Kinase HotSpot)
How it was run: as §1

EPHB1 = biological target: T3, EPHB1 (Homo sapiens, UniProt P54762)
T3 construct: purchased Reaction Biology Corporation (Kinase HotSpot)
T3 sequence (P54762 18-984): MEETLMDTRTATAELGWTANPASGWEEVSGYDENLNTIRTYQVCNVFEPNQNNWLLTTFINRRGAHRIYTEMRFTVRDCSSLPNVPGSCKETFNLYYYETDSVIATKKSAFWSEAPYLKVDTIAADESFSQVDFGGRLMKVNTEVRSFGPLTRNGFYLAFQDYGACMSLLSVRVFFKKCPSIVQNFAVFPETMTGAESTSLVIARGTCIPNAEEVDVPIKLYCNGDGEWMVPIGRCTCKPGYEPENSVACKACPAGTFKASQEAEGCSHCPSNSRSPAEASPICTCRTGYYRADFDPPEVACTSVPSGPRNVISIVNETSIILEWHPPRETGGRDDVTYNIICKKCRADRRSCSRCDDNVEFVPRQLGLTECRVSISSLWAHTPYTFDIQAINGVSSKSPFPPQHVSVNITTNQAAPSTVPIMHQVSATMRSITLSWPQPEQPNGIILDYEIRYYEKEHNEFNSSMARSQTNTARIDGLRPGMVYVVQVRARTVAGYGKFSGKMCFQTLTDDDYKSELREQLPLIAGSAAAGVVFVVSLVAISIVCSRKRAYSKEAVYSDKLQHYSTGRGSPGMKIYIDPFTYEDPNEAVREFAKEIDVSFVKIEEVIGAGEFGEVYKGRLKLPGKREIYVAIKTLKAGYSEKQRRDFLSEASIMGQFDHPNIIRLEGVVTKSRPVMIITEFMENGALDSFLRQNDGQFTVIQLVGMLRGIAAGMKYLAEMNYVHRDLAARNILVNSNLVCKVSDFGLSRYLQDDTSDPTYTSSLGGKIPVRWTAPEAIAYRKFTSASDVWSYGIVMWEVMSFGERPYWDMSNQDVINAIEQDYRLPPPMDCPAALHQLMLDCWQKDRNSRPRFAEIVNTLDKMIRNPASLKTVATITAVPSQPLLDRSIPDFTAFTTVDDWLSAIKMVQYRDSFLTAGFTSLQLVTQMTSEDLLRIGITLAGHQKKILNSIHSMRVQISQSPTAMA
How it was run: as §1

CDC7/DBF4 = biological target: T4, CDC7/DBF4 (Homo sapiens, UniProt O00311)
T4 construct: purchased Reaction Biology Corporation (Kinase HotSpot)
How it was run: as §1

MYLK3 = biological target: T5, MYLK3 (Homo sapiens, UniProt Q32MK0)
T5 construct: purchased Reaction Biology Corporation (Kinase HotSpot)
How it was run: as §1

c-Src = biological target: T6, c-Src (Homo sapiens, UniProt P12931)
T6 construct: purchased Reaction Biology Corporation (Kinase HotSpot)
How it was run: as §1

CDK2/Cyclin A1 = biological target: T7, CDK2/Cyclin A1 (Homo sapiens, UniProt P24941)
T7 construct: purchased Reaction Biology Corporation (Kinase HotSpot)
How it was run: as §1

PKCa = biological target: T8, PKCa (Homo sapiens, UniProt P17252)
T8 construct: purchased Reaction Biology Corporation (Kinase HotSpot)
How it was run: as §1

MELK = biological target: T9, MELK (Homo sapiens, UniProt Q14680)
T9 construct: purchased Reaction Biology Corporation (Kinase HotSpot)
How it was run: as §1

LIMK2 = biological target: T10, LIMK2 (Homo sapiens, UniProt P53671)
T10 construct: purchased Reaction Biology Corporation (Kinase HotSpot)
How it was run: as §1

PKN3/PRK3 = biological target: T11, PKN3/PRK3 (Homo sapiens, UniProt Q6P5Z2)
T11 construct: purchased Reaction Biology Corporation (Kinase HotSpot)
How it was run: as §1

SYK = biological target: T12, SYK (Homo sapiens, UniProt P43405)
T12 construct: purchased Reaction Biology Corporation (Kinase HotSpot)
How it was run: as §1

PAK4 = biological target: T13, PAK4 (Homo sapiens, UniProt O96013)
T13 construct: purchased Reaction Biology Corporation (Kinase HotSpot)
T13 sequence (O96013 whole entry): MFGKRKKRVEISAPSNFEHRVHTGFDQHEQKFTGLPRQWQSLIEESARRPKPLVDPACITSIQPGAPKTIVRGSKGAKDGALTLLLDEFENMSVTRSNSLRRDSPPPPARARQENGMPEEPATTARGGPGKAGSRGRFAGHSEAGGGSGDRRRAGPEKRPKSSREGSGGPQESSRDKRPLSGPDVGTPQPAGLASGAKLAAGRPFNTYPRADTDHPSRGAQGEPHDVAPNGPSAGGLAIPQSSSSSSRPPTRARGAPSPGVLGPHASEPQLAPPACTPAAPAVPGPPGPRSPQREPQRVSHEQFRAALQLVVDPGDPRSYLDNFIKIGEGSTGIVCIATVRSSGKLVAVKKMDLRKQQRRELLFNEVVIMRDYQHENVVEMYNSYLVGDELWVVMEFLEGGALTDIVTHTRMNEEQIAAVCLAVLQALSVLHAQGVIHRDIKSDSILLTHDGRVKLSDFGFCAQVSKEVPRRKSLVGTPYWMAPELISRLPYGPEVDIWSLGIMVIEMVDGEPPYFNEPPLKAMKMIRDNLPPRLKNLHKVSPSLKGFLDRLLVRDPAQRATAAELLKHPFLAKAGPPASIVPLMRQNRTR
How it was run: as §1

CK1d = biological target: T14, CK1d (Homo sapiens, UniProt P48730)
T14 construct: purchased Reaction Biology Corporation (Kinase HotSpot)
T14 sequence (P48730 whole entry): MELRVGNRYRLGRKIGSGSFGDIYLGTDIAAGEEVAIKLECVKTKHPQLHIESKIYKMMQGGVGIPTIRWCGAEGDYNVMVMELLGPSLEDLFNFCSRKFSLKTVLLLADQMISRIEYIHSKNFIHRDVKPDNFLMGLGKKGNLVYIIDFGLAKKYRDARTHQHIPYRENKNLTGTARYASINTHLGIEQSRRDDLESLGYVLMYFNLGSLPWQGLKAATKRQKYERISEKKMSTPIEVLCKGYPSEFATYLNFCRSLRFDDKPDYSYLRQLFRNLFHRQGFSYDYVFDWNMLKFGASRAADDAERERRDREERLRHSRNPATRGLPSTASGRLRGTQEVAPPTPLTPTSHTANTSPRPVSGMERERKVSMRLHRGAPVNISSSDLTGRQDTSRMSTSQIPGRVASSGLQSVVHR
How it was run: as §1

ULK3 = biological target: T15, ULK3 (Homo sapiens, UniProt Q6PHR2)
T15 construct: purchased Reaction Biology Corporation (Kinase HotSpot)
How it was run: as §1

CLK2 = biological target: T16, CLK2 (Homo sapiens, UniProt P49760)
T16 construct: purchased Reaction Biology Corporation (Kinase HotSpot)
How it was run: as §1

PIM2 = biological target: T17, PIM2 (Homo sapiens, UniProt Q9P1W9)
T17 construct: purchased Reaction Biology Corporation (Kinase HotSpot)
How it was run: as §1

HCK = biological target: T18, HCK (Homo sapiens, UniProt P08631)
T18 construct: purchased Reaction Biology Corporation (Kinase HotSpot)
How it was run: as §1

MLK3/MAP3K11 = biological target: T19, MLK3/MAP3K11 (Homo sapiens, UniProt Q16584)
T19 construct: purchased Reaction Biology Corporation (Kinase HotSpot)
How it was run: as §1

ALK = biological target: T20, ALK (Homo sapiens, UniProt Q9UM73)
T20 construct: purchased Reaction Biology Corporation (Kinase HotSpot)
How it was run: as §1

DYRK2 = biological target: T21, DYRK2 (Homo sapiens, UniProt Q92630)
T21 construct: purchased Reaction Biology Corporation (Kinase HotSpot)
How it was run: as §1

STK16 = biological target: T22, STK16 (Homo sapiens, UniProt O75716)
T22 construct: purchased Reaction Biology Corporation (Kinase HotSpot)
How it was run: as §1

NIM1 = biological target: T23, NIM1 (Homo sapiens, UniProt Q8IY84)
T23 construct: purchased Reaction Biology Corporation (Kinase HotSpot)
How it was run: as §1

CAMK4 = biological target: T24, CAMK4 (Homo sapiens, UniProt Q16566)
T24 construct: purchased Reaction Biology Corporation (Kinase HotSpot)
How it was run: as §1

LCK = biological target: T25, LCK (Homo sapiens, UniProt P06239)
T25 construct: purchased Reaction Biology Corporation (Kinase HotSpot)
How it was run: as §1

CDK19/cyclin C = biological target: T26, CDK19/cyclin C (Homo sapiens, UniProt Q9BWU1)
T26 construct: purchased Reaction Biology Corporation (Kinase HotSpot)
How it was run: as §1

TXK = biological target: T27, TXK (Homo sapiens, UniProt P42681)
T27 construct: purchased Reaction Biology Corporation (Kinase HotSpot)
How it was run: as §1

ACK1 = biological target: T28, ACK1 (Homo sapiens, UniProt Q07912)
T28 construct: purchased Reaction Biology Corporation (Kinase HotSpot)
T28 sequence (Q07912 whole entry): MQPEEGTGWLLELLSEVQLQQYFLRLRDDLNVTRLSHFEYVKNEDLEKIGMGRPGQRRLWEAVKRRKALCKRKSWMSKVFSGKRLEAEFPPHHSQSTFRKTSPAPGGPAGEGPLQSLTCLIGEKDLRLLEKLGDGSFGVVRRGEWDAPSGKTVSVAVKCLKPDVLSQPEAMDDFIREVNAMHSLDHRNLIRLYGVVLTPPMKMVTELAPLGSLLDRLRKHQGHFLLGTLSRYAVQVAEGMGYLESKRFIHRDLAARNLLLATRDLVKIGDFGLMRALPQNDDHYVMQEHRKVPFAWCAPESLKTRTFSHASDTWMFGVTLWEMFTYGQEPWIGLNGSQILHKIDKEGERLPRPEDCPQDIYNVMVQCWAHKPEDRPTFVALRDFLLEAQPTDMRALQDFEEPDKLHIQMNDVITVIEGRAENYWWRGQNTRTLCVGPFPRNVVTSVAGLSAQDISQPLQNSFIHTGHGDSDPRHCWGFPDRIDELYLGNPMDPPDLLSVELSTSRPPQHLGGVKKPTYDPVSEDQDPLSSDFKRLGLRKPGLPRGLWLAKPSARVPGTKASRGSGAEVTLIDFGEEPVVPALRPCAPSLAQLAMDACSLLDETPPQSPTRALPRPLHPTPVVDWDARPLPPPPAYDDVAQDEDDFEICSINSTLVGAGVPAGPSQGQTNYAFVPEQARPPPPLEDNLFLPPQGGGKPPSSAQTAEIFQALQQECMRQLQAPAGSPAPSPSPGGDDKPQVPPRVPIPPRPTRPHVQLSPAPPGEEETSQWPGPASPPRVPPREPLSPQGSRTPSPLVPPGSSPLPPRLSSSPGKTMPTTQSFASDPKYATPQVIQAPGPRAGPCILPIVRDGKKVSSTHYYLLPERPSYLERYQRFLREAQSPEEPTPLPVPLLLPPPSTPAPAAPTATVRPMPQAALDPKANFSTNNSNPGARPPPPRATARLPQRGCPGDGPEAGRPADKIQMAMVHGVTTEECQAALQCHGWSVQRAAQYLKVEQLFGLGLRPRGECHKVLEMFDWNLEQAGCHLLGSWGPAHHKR
How it was run: as §1

MUSK = biological target: T29, MUSK (Homo sapiens, UniProt O15146)
T29 construct: purchased Reaction Biology Corporation (Kinase HotSpot)
T29 sequence (O15146 24-869): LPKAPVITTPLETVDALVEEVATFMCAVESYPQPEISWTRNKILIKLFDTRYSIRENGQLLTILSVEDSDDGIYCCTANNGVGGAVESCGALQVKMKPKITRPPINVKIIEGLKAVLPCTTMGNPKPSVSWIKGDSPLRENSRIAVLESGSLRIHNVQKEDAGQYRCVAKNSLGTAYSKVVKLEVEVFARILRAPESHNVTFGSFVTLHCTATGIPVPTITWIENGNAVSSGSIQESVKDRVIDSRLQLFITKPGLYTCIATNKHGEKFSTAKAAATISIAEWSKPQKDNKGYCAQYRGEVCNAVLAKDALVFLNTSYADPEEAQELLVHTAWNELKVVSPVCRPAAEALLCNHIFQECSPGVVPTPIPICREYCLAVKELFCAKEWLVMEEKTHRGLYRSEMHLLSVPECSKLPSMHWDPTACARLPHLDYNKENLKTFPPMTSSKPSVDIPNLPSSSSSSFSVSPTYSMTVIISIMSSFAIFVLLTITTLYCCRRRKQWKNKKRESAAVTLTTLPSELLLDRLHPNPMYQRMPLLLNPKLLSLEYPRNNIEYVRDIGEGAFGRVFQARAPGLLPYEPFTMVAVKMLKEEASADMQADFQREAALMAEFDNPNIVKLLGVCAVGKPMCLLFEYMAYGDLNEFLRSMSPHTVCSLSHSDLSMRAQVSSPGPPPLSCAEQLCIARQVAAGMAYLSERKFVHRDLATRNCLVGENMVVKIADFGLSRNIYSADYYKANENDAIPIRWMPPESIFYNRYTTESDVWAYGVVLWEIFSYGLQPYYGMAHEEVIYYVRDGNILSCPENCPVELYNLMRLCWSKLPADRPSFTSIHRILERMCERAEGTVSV
How it was run: as §1

PAK3 = biological target: T30, PAK3 (Homo sapiens, UniProt O75914)
T30 construct: purchased Reaction Biology Corporation (Kinase HotSpot)
How it was run: as §1

T1 sequence (Q9H2X6 whole entry): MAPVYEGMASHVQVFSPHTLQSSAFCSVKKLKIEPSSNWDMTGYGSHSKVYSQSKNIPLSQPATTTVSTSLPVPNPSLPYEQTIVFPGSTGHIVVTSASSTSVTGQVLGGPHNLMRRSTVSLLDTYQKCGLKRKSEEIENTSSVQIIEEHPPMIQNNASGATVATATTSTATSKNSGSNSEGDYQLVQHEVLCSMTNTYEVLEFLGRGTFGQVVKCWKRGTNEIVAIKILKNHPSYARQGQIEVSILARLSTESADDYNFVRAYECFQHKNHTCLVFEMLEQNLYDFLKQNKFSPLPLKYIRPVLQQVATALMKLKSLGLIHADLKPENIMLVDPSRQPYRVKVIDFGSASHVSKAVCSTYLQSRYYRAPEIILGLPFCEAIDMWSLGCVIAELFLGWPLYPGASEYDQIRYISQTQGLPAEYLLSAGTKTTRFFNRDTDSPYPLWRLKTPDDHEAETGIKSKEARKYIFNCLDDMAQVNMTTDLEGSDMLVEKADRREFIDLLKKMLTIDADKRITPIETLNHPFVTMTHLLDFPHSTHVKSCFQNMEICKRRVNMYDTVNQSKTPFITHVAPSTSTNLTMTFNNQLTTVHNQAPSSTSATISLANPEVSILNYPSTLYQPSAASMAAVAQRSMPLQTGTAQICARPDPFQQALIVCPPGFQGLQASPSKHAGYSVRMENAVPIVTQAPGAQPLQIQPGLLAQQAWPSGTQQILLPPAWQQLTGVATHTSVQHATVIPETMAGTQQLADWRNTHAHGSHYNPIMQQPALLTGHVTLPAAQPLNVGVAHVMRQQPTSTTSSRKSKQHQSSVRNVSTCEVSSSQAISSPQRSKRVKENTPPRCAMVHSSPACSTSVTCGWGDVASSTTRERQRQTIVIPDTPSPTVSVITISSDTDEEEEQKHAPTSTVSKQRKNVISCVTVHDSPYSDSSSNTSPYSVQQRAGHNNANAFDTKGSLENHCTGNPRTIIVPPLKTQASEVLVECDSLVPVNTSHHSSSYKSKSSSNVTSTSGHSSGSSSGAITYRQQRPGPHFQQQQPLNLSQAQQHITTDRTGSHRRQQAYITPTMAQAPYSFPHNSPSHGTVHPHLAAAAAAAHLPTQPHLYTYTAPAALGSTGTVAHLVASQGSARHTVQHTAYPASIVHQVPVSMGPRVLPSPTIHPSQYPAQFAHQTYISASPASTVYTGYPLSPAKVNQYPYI

With `Cc1cnc(N[C@H]2CC[C@H](N)CC2)nc1-c1cnc2ccc(-c3ccccc3)cn12` [CDDD11-8] the remaining activity at 1 µM (HIPK2) was 104%, the remaining activity at 1 µM (ABL1) was 76.8% and the remaining activity at 1 µM (EPHB1) was 88.1%. It also gave a remaining activity at 1 µM (CDC7/DBF4) of 109%, a remaining activity at 1 µM (MYLK3) of 99.7% and a remaining activity at 1 µM (c-Src) of 49.5%. It also gave a remaining activity at 1 µM (CDK2/Cyclin A1) of 55.7%, a remaining activity at 1 µM (PKCa) of 76% and a remaining activity at 1 µM (MELK) of 66.9%. The remaining activity at 1 µM (LIMK2) was 93.8%, the remaining activity at 1 µM (PKN3/PRK3) was 81% and the remaining activity at 1 µM (SYK) was 13.4%. For the same compound, the remaining activity at 1 µM (PAK4) was 99.7%, the remaining activity at 1 µM (CK1d) was 17.6% and the remaining activity at 1 µM (ULK3) was 82.8%. It also gave a remaining activity at 1 µM (CLK2) of 47%, a remaining activity at 1 µM (PIM2) of 94.5% and a remaining activity at 1 µM (HCK) of 62.7%. The remaining activity at 1 µM (MLK3/MAP3K11) was 45.1%, the remaining activity at 1 µM (ALK) was 68.9% and the remaining activity at 1 µM (DYRK2) was 12.7%. The remaining activity at 1 µM (STK16) was 75.2%, the remaining activity at 1 µM (NIM1) was 89.9% and the remaining activity at 1 µM (CAMK4) was 97.3%. For the same compound, the remaining activity at 1 µM (LCK) was 72.5%, the remaining activity at 1 µM (CDK19/cyclin C) was 38% and the remaining activity at 1 µM (TXK) was 60.4%. For the same compound, the remaining activity at 1 µM (ACK1) was 64.5%, the remaining activity at 1 µM (MUSK) was 72.7% and the remaining activity at 1 µM (PAK3) was 87.5%.
